# Test results as given in US20110178104A1, “Anti-Heparin Compounds” (POLYMEDIX INC., priority 2010, published 2011).
# pEC50: −log10 of the molar value. “And” between values parts separate entries of the source, which are not always exact repeats. Equal values may be shown once. Read-outs that look alike come from different tables or passages of the source.
# What was measured:
# [1] = system: UFH; test: FXa amidolytic assay (Example 10), UFH; conditions: read-out: Heparin FXa uM EC50
# Method: (§1) Two μl of test agent are added (range between 0.01 and 23 ug/ml) and incubated for 5 minutes at 23° C. Bovine Factor Xa was added to a final concentration of 0.636 nkat/mL and incubated for a further 10 minutes at 23° C.
# [2] = system: enoxaparin; test: FXa amidolytic assay (Example 10), enoxaparin; conditions: read-out: Enox FXa EC50
# Method: as §1
# [3] = system: fondaparinux; test: FXa amidolytic assay (Example 10), fondaparinux; conditions: read-out: Fondap FXa EC50
# Method: as §1
# [4] = system: Unfractionated heparin; test: aPTT clotting assay, UFH 0.4 U/mL in plasma (Example 10); type: biochemical
# Method: aPTT clotting Assay: Unfractionated heparin was mixed with plasma at a final concentration of 0.4 U/mL (or concentration which increases aPTT time to between 120 and 300 seconds). […] The ACL Elite Hemostasis analyzer (Beckman Coulter™) was used to add aPTT reagent (HemosIL SynthASil) to supplemented plasma. Clotting was initiated by addition of CaCl2 and time to clot was recorded.
# [5] = system: tinzaparin; test: FXa amidolytic assay (Example 10), tinzaparin; conditions: read-out: Tinzap FXa EC50
# Method: as §1
# [6] = system: isolated human erythrocytes; test: cells; type: cell-based; conditions: human RBC, 1 hour at 37° C.; for EC50: Homo sapiens, Erythrocyte, 1 h, read-out: Hemolysis EC50
# Method: Hemolysis assay: Cytotoxicity was also evaluated in a hemolysis assay using isolated human erythrocytes. Pooled whole human blood was centrifuged to separate the red blood cells (RBC). The isolated RBCs were rinsed and diluted in Tris-buffered saline (TBS buffer, pH 7.4) to obtain a 0.22% RBC stock suspension. Serial two-fold dilutions of test agent were assayed over a concentration range of 1000 to 0.48 μg/ml with shaking for 1 hour at 37° C. At the conclusion of the incubation time, samples were centrifuged and 30 μl of the supernatant was added to 100 μl H2O. OD405 measurements were read for hemoglobin concentration. The bee venom peptide melittin was used as a positive control. EC50 values were determined using a four parameter logistic equation: Y=Bottom+(Top-Bottom)/(1+10̂((LogEC50-X)*HillSlope)).
# [7] = UFH 0.03 units/mL, human antithrombin, bovine Factor Xa
# [8] = enoxaparin 0.1 ug/ml, human antithrombin, bovine Factor Xa
# [9] = fondaparinux 0.02 μg/mL, human antithrombin, bovine Factor Xa
# [10] = unfractionated heparin 0.4 U/mL in plasma, aPTT clotting
# [11] = tinzaparin 0.1 ug/ml, human antithrombin, bovine Factor Xa
SMILES,"EC50 [1, 7] [µM]","pEC50 [2, 8]","pEC50 [3, 9]","pEC50 [4, 10]","pEC50 [5, 11]",EC50 [6] [µg/mL],Hemolysis EC50 [6],EC50 [1] [µM],pEC50 [2],pEC50 [3],pEC50 [4],pEC50 [5]
COc1ccc(NC(=O)[C@@H](CCCNC(=N)N)NC(=O)c2cc(NC(=O)[C@@H](CCCNC(N)=O)NC(=O)c3cc(NC(=O)[C@@H](CCCNC(N)=O)NC(=O)c4cc(NC(=O)[C@H](N)CCCNC(=N)N)ccc4OC)ccc3OC)ccc2OC)cc1C(N)=O [Compound 376],0.416,6.72,5.78,5.72,6.94,,,,,,,
COc1ccc(C(=O)N[C@@H](CCCCN)C(=O)Nc2ccc(OC)c(C(=O)N[C@@H](CCCCN)C(=O)Nc3ccc(OC)c(C(=O)N[C@@H](CCCCN)C(=O)Nc4ccc(OC)c(C(N)=O)c4)c3)c2)cc1NC(=O)[C@@H](N)CCCCN [Compound 237],0.199,6.75 and 6.47,5.44 and 5.43,5.94,6.96 and 6.92,,,,,,,
COc1cc(OC)c(C(=O)N[C@H]2CC[C@@H](NC(=O)c3cc(C(=O)N[C@H]4CC[C@@H](N)CC4)c(OC)cc3OC)CC2)cc1C(=O)NCCN [Compound 383],> 20,< 5.30,< 5.00,< 5.00,< 5.30,,,,,,,
COc1ccc(NC(=O)[C@@H](CCCNC(=N)N)NC(=O)c2cc(NC(=O)[C@@H](CCCNC(=N)N)NC(=O)c3cc(NC(=O)[C@@H](CCCNC(=N)N)NC(=O)c4cc(NC(=O)[C@H](N)CCCNC(=N)N)ccc4OC)ccc3OC)ccc2OC)cc1C(=O)N[C@H](Cc1c[nH]c2ccccc12)C(=O)O [Compound 303],,6.72,6.84,< 5.00,6.72,~500,,,,,,
COc1ccc(NC(=O)[C@@H](CCCNC(N)=O)NC(=O)c2cc(NC(=O)[C@@H](CCCNC(N)=O)NC(=O)c3cc(NC(=O)[C@@H](CCCNC(=N)N)NC(=O)c4cc(NC(=O)[C@H](N)CCCNC(N)=O)ccc4OC)ccc3OC)ccc2OC)cc1C(N)=O [Compound 372],> 10,6.65,6.26,5.53,6.82,,,,,,,
COc1cc(OC)c(C(=O)N[C@H]2CC[C@@H](NC(=O)c3cc(C(=O)N[C@H]4CC[C@@H](N=C(N(C)C)N(C)C)CC4)c(OC)cc3OC)CC2)cc1C(N)=O [Compound 388],> 20,< 5.30,< 5.00,< 5.00,< 5.30,,,,,,,
COc1ccc(NC(=O)[C@@H](CCCNC(=N)N)NC(=O)c2cc(NC(=O)[C@@H](CCCNC(=N)N)NC(=O)c3cc(NC(=O)[C@@H](CCCNC(N)=O)NC(=O)c4cc(NC(=O)[C@H](N)CCCNC(N)=O)ccc4OC)ccc3OC)ccc2OC)cc1C(N)=O [Compound 374],0.677,6.80,5.74,5.62,6.94,,,,,,,
COc1ccc(NC(=O)[C@@H](CCCNC(=N)N)NC(=O)c2cc(NC(=O)[C@@H](CCCNC(N)=O)NC(=O)c3cc(NC(=O)[C@@H](CCCNC(N)=O)NC(=O)c4cc(NC(=O)[C@H](N)CCCNC(N)=O)ccc4OC)ccc3OC)ccc2OC)cc1C(N)=O [Compound 370],12.5,6.33,< 5.00,5.84,6.59,,,,,,,
COc1ccc(NC(=O)[C@H](CCCCCN)NC(=O)c2cc(NC(=O)[C@H](CCCCCN)NC(=O)c3cc(NC(=O)[C@H](CCCCCN)NC(=O)c4cc(NC(=O)[C@@H](N)CCCCCN)ccc4OC)ccc3OC)ccc2OC)cc1C(N)=O [Compound 236],0.364,7.00,< 4.90,5.71,6.40,,,,,,,
COc1ccc(NC(=O)[C@@H](CCCNC(=N)N)NC(=O)c2cc(NC(=O)[C@@H](CCCNC(=N)N)NC(=O)c3cc(NC(=O)[C@@H](CCCNC(N)=O)NC(=O)c4cc(NC(=O)[C@H](N)CCCNC(=N)N)ccc4OC)ccc3OC)ccc2OC)cc1C(N)=O [Compound 219],0.153,7.02,6.14,5.93,6.73,,,,,,,
COc1cc(OC)c(C(=O)NC2CCN(C(=O)c3cc(C(=O)NCCN)c(OC)cc3OC)CC2)cc1C(=O)O [Compound 385],> 20,< 5.30,< 5.00,< 5.00,< 5.30,,,,,,,
COc1cc(OC)c(C(=O)N2CCC(NC(=O)c3cc(C(=O)NC4CCN(C(=O)c5cc(C(=O)NCCN)c(OC)cc5OC)CC4)c(OC)cc3OC)CC2)cc1C(=O)NCCN [Compound 384],> 20,< 5.30,< 5.00,< 5.00,< 5.30,,,,,,,
COc1cc(OC)c(C(=O)N[C@H]2CC[C@@H](NC(=O)c3cc(C(=O)N[C@H]4CC[C@@H](N=C(N(C)C)N(C)C)CC4)c(OC)cc3OC)CC2)cc1C(=O)NCCN [Compound 382],> 20,< 5.30,< 5.00,< 5.00,< 5.30,,,,,,,
COc1ccc(NC(=O)[C@H](CCCCN)NC(=O)c2cc(NC(=O)[C@H](CCCCN)NC(=O)c3cc(NC(=O)[C@H](CCCCN)NC(=O)c4cc(NC(=O)[C@@H](N)Cc5c[nH]c6ccccc56)ccc4OC)ccc3OC)ccc2OCC(=O)O)cc1C(=O)N[C@@H](Cc1c[nH]c2ccccc12)C(N)=O [Compound 334],,6.60,6.65,< 5.00,6.55,~15,,,,,,
COc1ccc(NC(=O)[C@@H](CCCNC(N)=O)NC(=O)c2cc(NC(=O)[C@@H](CCCNC(N)=O)NC(=O)c3cc(NC(=O)[C@@H](CCCNC(=N)N)NC(=O)c4cc(NC(=O)[C@H](N)CCCNC(=N)N)ccc4OC)ccc3OC)ccc2OC)cc1C(N)=O [Compound 375],0.681,6.95,5.90,5.57,7.12,,,,,,,
COc1ccc(NC(=O)[C@@H](CCCNC(=N)N)NC(=O)c2cc(NC(=O)[C@@H](CCCNC(=N)N)NC(=O)c3cc(NC(=O)[C@@H](CCC(=O)O)NC(=O)c4cc(NC(=O)[C@H](N)CCCNC(=N)N)ccc4OC)ccc3OC)ccc2OC)cc1C(N)=O [Compound 321],,6.36,5.57,5.74,6.65,> 1000,,,,,,
COc1cc(OC)c(C(=O)N[C@H]2CC[C@H](NC(=O)c3cc(C(=O)N[C@H]4CC[C@H](N=C(N(C)C)N(C)C)CC4)c(OC)cc3OC)CC2)cc1C(N)=O [Compound 389],> 10,5.25,< 5.00,< 5.00,5.17,,,,,,,
COc1ccc(NC(=O)[C@@H](CCCNC(=N)N)NC(=O)c2cc(NC(=O)[C@@H](CCCNC(=N)N)NC(=O)c3cc(NC(=O)[C@@H](CCCNC(=N)N)NC(=O)c4cc(NC(=O)[C@H](N)CCCNC(=N)N)ccc4OC)ccc3OC)ccc2OC)cc1C(=O)NCC(=O)O [Compound 278],,6.82,6.39,5.70,6.88,,no significant decrease,,,,,
COc1ccc(NC(=O)[C@@H](CCCNC(N)=O)NC(=O)c2cc(NC(=O)[C@@H](CCCNC(N)=O)NC(=O)c3cc(NC(=O)[C@@H](CCCNC(N)=O)NC(=O)c4cc(NC(=O)[C@H](N)CCCNC(=N)N)ccc4OC)ccc3OC)ccc2OC)cc1C(N)=O [Compound 373],> 10,6.91,< 5.00,5.63,6.91,,,,,,,
COc1cc(OC)c(C(=O)NCCNC(=O)c2cc(C(=O)NCCNC(=O)c3cc(C(=O)NCCN)c(OC)cc3OC)c(OC)cc2OC)cc1C(=O)NCCN [Compound 386],19.4,< 5.30,< 5.00,,5.14,,,,,,,
COc1ccc(NC(=O)[C@@H](CCCNC(N)=O)NC(=O)c2cc(NC(=O)[C@@H](CCCNC(=N)N)NC(=O)c3cc(NC(=O)[C@@H](CCCNC(=N)N)NC(=O)c4cc(NC(=O)[C@H](N)CCCNC(N)=O)ccc4OC)ccc3OC)ccc2OC)cc1C(N)=O [Compound 377],,,,,,,,0.66,6.83,5.84,5.68,7.04
COc1ccc(NC(=O)[C@H](CCCNC(=N)N)NC(=O)c2cc(NC(=O)[C@H](CCCNC(=N)N)NC(=O)c3cc(NC(=O)[C@H](CCC(=O)O)NC(=O)c4cc(NC(=O)[C@@H](N)CCCNC(=N)N)ccc4OC)ccc3OC)ccc2OC)cc1C(N)=O [Compound 325],,6.30,5.65,5.57,6.67,> 1000,,,,,,
COc1ccc(NC(=O)[C@H](CCCCN)NC(=O)c2cc(NC(=O)[C@H](CCCCN)NC(=O)c3cc(NC(=O)[C@H](CCC(=O)O)NC(=O)c4cc(NC(=O)[C@@H](N)CCCCN)ccc4OC)ccc3OC)ccc2OC)cc1C(N)=O [Compound 317],,6.53,6.06,5.79,6.75,> 1000,,,,,,
